The results in this text go back to patent US20170275287A1, “NOVEL N2, N4, N7, 6-TETRASUBSTITUTED PTERIDINE-2,4,7-TRIAMINE AND 2, 4, 6, 7-TETRASUBSTITUTED PTERIDINE COMPOUNDS AND METHODS OF SYNTHESIS AND USE THEREOF” (Janus Biotherapeutics, Inc., priority 2014, published 2017).

This test concerns the target T1, TLR7 (Homo sapiens, UniProt Q9NYK1).
T1 sequence (Q9NYK1 27-1049): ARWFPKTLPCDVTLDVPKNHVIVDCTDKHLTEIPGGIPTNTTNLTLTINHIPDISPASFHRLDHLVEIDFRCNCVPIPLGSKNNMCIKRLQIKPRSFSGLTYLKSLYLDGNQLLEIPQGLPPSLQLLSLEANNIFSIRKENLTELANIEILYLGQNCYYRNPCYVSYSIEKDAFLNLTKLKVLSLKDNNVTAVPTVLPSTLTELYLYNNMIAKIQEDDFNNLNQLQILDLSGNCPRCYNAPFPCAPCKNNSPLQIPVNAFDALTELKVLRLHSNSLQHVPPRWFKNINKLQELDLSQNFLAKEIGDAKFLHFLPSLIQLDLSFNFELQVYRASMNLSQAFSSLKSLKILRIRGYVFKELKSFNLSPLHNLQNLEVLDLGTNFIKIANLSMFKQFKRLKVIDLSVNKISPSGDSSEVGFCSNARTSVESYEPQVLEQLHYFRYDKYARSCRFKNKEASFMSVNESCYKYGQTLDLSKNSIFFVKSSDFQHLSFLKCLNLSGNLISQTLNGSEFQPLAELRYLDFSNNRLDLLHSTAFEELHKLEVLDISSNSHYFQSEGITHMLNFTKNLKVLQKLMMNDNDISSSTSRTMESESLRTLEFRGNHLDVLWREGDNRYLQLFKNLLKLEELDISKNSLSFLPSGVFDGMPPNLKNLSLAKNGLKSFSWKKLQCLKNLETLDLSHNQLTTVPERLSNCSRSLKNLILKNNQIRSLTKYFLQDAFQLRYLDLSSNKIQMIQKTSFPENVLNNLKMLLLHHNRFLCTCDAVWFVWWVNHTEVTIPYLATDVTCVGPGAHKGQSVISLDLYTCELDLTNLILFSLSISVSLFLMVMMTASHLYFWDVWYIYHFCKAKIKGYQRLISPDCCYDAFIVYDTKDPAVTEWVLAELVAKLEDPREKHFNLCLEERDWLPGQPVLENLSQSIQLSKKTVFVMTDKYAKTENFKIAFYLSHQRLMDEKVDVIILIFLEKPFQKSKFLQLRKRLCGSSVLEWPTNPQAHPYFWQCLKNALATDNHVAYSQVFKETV
The test can be described thus: TLR7 antagonist assay in human PBMCs (ORN1075, IFNα ELISA). The class given is cell-based. Also noted: PBMCs were isolated from unpurified buffy coat from healthy human donors; host or cells: primary human PBMCs. The conditions noted are these: human PBMC, 0.5 μM ORN1075, IFNα readout. How it is done: PBMCs were isolated from unpurified buffy coat from healthy human donors (Blood Research Components, LLC). For antagonist testing, cells were plated on 96-well U-bottom plates at 3×10^6 cells/ml. Antagonist compounds were added to cells in duplicate wells and titrated from 10 μM in 1:3 serial dilutions (8 antagonist concentrations tested in total). After approximately 30 minutes, cells were stimulated with agonist compound (see table 2 for agonist concentrations). After stimulation, cells were incubated overnight at 37° C. To increase the stability of the ssRNA, 3 μg/ml DOTAP (Roche) was added to ORN1075 agonist solutions. All dilutions were made in RPMI-1640 media (Sigma, cat.# R7388)+5% human male AB sera (Sigma, cat.# H4522)+1× Penicillin/Streptomycin solution (VWR, cat.#82026-730).
TLR activity was measured in PBMCs and neutrophils by ELISA using cytokine readouts specific for the TLR of interest.
IFNα was measured as a readout for TLR7 and TLR9 activity in PBMCs stimulated with either ORN1075, or ODN2395, respectively, using a Human Pan-IFNα ELISA kit (MABTech, cat.#3425-1H-20). PBMC supernatant was diluted 1:3 in PBS+0.05% tween-20+0.1% BSA. Absorbance at 450 nm was recorded using a Molecular Devices SpectraMax340PC plate reader. The IC50 for each antagonist was subsequently calculated following the method described below.
Raw ELISA datasets for each 96-well plate, consisting of absorbance readings at […], were first imported in Microsoft Excel to calculate the average absorbance for each standard or antagonist concentration. The averaged data was then imported into SigmaPlot v.11.0 where a standard curve was calculated and used to extrapolate the relative concentration of TLR readout (TNFα, IFNα, etc.) produced. The dose-response curve of each antagonist was then plotted with SigmaPlot v.11.0 on a Log scale. Concentrations of TLR readout were converted to a percentage relative to the average maximum concentration for that ELISA plate in Microsoft Excel. The IC50 for each antagonist was then determined with the SigmaPlot regression wizard using a 4-parameter Hill equation. Each antagonist was tested in a minimum of 3 independent experiments and IC50 results were compiled and averaged using Microsoft Excel.
(In general: ELISA stands for enzyme-linked immunosorbent assay.)
Take `CN1CCN(c2nc(NCCN3CCOCC3)c3ncc(-c4ccccc4)nc3n2)CC1` [JB6059]: the IC50 (as a rule, the midpoint of a concentration-inhibition curve) was 143 nM.

In turn, `CN1CCN(c2nc3nc(-c4ccccc4)nc(NCCN4CCOCC4)c3nc2OCCN2CCOCC2)CC1` [JB6116] returned an IC50 of 81 nM. Under `CN1CCN(c2nc(NCCN3CCOCC3)c3nc(Cl)c(NCCN4CCOCC4)nc3n2)CC1` [JB6121, 6-chloro-2-(4-methylpiperazin-1-yl)-N^4,N^7-bis(2-morpholinoethyl)pteridine-4,7-diamine] stands 25 nM. As for `CCOc1nc2c(NCCN3CCCC3)nc(-c3ccccc3)nc2nc1N1CCN(C)CC1` [JB6131], the IC50 amounted to 64 nM. The result for `CCCCNc1nc(NCCN2CCOCC2)c2nc(Cl)c(NCCN3CCOCC3)nc2n1` [JB6140] reads 238 nM; that for `C[C@@H]1CN(CCNc2nc3nc(N4CCN(C)CC4)nc(NCCN4C[C@@H](C)O[C@@H](C)C4)c3nc2Cl)C[C@H](C)O1` [JB6143], 24 nM. Molecule `Clc1nc2c(NCCN3CCOCC3)nc(N3CCOCC3)nc2nc1NCCN1CCOCC1` [JB6147] showed an IC50 of 223 nM. The result for `COCCN1CCN(c2nc(NCCN3CCOCC3)c3nc(Cl)c(NCCN4CCOCC4)nc3n2)CC1` [JB6160] reads 28 nM; that for `Clc1nc2c(NCCN3CCOCC3)nc(NCc3ccccc3)nc2nc1NCCN1CCOCC1` [JB6172], 62 nM; that for `CCOc1nc2c(NCCN3CCOCC3)nc(NCc3ccccc3)nc2nc1NCCN1CCOCC1` [JB6180], 502 nM. Under `CCCCNc1nc(NCCN2CCOCC2)c2nc(SCC)c(NCCN3CCOCC3)nc2n1` [JB6185] stands 74 nM.
